Values quoted from earlier work, collected in patent publication US5814653A, “Pharmaceutical method using 6-substituted-1, 2, 3, 4-tetrahydro-9H-carbazoles and 7-substituted-10H -cyclohepta (7, 6-B) indoles” (priority 1997, dated 1998).

Experiments:
[1] = test system: neurogenic inflammation; settings: Neurology, 43(suppl. 3), S16-S20 (1993)
[2] = in vivo
[3] = test system: migraine headache; settings: Humphrey, et al. (1990)

In the case of `CNS(=O)(=O)Cc1ccc2[nH]cc(CCN(C)C)c2c1.O=C(O)CCC(=O)O` [Compound I, 3-[2-(dimethylamino)ethyl]-N-methyl-1H-indole-5-methanesulfonamide butane-1,4-dioate (1:1)], the “blockade of neurogenic inflammation” value [1] is given as “blocked”, the undesirable side effects [2] is given as “undesirable side effects, particularly vasoconstriction” and the “effectiveness in the treatment of migraine headache” value [3] is given as “effective in the treatment of migraine”.
